Assays:
[1] = test system: passive cutaneous anaphylaxis (PCA), ovalbumin challenge; assay: Passive cutaneous anaphylaxis (PCA) in rats; assay type: in vivo, Male Wistar rats; conditions: S.C., PBS with NaHCO3, rat
Description: Serum containing heat labile homocytotropic anitbody was raised in rats to crystallized ovalbumin XOA by the method of Mota (I. Mota, Immunology, 7,681 [1964]) using Bordettela pertussis vaccine as adjuvant.
Passive cutaneous anaphylaxis (PCA) was carried out by a method based on that of Ovary and Bier, (A. Ovary and O. G. Bier, Proc. Soc. Exp. Biol. Med. 81, 584, [1952]) as modified by Goose and Blair. (Immunology 16, 749 (1969).
Male Wistar rats of 250-300 g. were given 0.1 ml. of each of six twofold serial dilutions of pooled antiserum in 0.9% saline injected intradermally into separate sites on their shaved backs. Later (72 hrs.) the animals were challenged by intravenous injection of 0.3 ml. of a 1% solution of ovalbumin in an isotonic solution of saline buffered with 0.05 M, pH 7.2, Sorenson Buffer (PBS), mixed with 0.2 ml. of a 5% solution of Pontamine Sky Blue (6BX C.I. 24410, Raymond A. Lamb, London) in isotonic saline. The rats were killed after 20 min and the diameter of the blue wheals at the antibody injection sites was measured on the outer surface of the skin. The starting dilution of the serum was adjusted so that there was no response, after challenge, at the injection site of the highest dilution and a maximum response at the lowest dilutions. Typically six twofold serial dilutions of the serum from 1/4 to 1/128 were used.
Compounds were tested for their ability to reduce the diameter of the wheals at those intradermal sites which in control animals gave less than maximum response. Each dose of the compound was administered to six rats at a measured time prior to intravenous challenge with ovalbumin. Control groups of six rats were given the same volume of carrier fluid (0.2 ml, 100 g^-1) at the same time prior to challenge.
The results were calculated as follows: % inhibition of PCA=100 (1-a/b) where a=the sum of the diameters of the wheals produced in the test animal at the sites of antibody dilutions as used in control groups and b=the mean sum of the diameters of the wheals produced in the control group of animals at those antibody sites where at least five out of six of the animals gave less than maximum response. A typical variations in the control group of animals was SEM±6%.

Oral LD50 toxicity = assay type: in vivo; conditions: rat, in vivo, Charles River Sprage Dawley CD strain male rats
Source text: (§1) Toxicity: Oral LD50 of the compound of example 1(d) in Charles River Sprage Dawley CD strain Male Rats: 980 mgkg^-1. LD50 data confidence limits: 95%, 548-1,413 mgkg^-1.

[2] = test system: Charles River Sprage Dawley CD strain Male Rats; assay: Oral LD50 toxicity; assay type: in vivo; conditions: 95% confidence limits
Source text: as §1

## O=C1c2ccc(F)cc2C(=O)c2[nH]nnc21 [5(e), 4,9-Dihydro-4,9-dioxo-6-fluoro-1H-naphtho[2,3-d]-triazole]
[1]; 10 mins, 20 mg/kg
  % Inhib PCA: 90%
[1]; 30 mins, 20 mg/kg
  % Inhib PCA: 27%

## Cc1ccc2c(c1)C(=O)c1nn[nH]c1C2=O [2(d), 4,9-Dihydro-4,9-dioxo-6methyl-1H-naphtho[2,3-d]-triazole]
[1]; 10 mins, 20 mg/kg
  % Inhib PCA: 73%
[1]; 30 mins, 20 mg/kg
  % Inhib PCA: 57%

## O=C1c2cccc([N+](=O)[O-])c2C(=O)c2[nH]nnc21 [Example 4, 4,9-Dihydro-4,9-dioxo-5-nitro-1H-naphtho-[2,3-d]-triazole]
[1]; 10 mins, 10 mg/kg
  % Inhib PCA: 44%
[1]; 30 mins, 10 mg/kg
  % Inhib PCA: 19%

## O=C1c2ccccc2C(=O)c2[nH]nnc21 [Example 8, 4,9-Dihydro-4,9-dioxo-1H-naphtho[2,3-d]-triazole]
[1]; 5 mins, 1 mg/kg
  % Inhib PCA: 39%
[1]; 5 mins, 2 mg/kg
  % Inhib PCA: 82%

## Cc1cc2c(c([N+](=O)[O-])c1C)C(=O)c1nn[nH]c1C2=O [Example 6, 4,9-Dihydro-6,7-dimethyl-4,9-dioxo-5-nitronaphtho[2,3-d]-triazole]
[1]; 10 mins, 1 mg/kg
  % Inhib PCA: 66%
[1]; 30 mins, 1 mg/kg
  % Inhib PCA: 28%

## Cc1cc2c(cc1C)C(=O)c1[nH]nnc1C2=O [1(d), 4,9-dihydro-6,7-dimethyl-4,9-dioxo-1H-naphtho[2,3-d]-triazole]
Oral LD50 toxicity
  LD50: 980 mg/kg
[2]
  LD50 data confidence limits: 95%: 548-1,413 mgkg^-1
[1]; 5 mins, 0.1 mg/kg
  % Inhib PCA: 30%
[1]; 5 mins, 0.2 mg/kg
  % Inhib PCA: 54%
[1]; 5 mins, 0.4 mg/kg
  % Inhib PCA: 61%
[1]; 5 mins, 0.8 mg/kg
  % Inhib PCA: 86%

## COc1ccc2c(c1)C(=O)c1nn[nH]c1C2=O [3(e), 4,9-Dihydro-4,9-dioxo-6-methoxy-1H-naphtho[2,3-d]-triazole]
[1]; 10 mins, 20 mg/kg
  % Inhib PCA: 61%
[1]; 30 mins, 20 mg/kg
  % Inhib PCA: 34%

— US4263309A, “Polycyclic triazoles used to inhibit allergic responses” (Beecham Group Limited, priority 1977, dated 1981)
